The NIST ThermoML archive (doi:10.1021/je7004374)

Legend:
[1] = refractive index (Na D-line) (dimensionless); settings: 298.15 K; 101.33 kPa; Liquid; Standard Abbe refractometry
[2] = Liquid

CC(O)CO (centres undefined) [1,2-propanediol]
Settings	refractive index
[1]	1.431

[2]
Settings	mass density [kg/m3]
283.16 K, 101.33 kPa	1043.43
288.15 K, 101.33 kPa	1039.84
293.15 K, 100 kPa	1036.22
293.15 K, 10000 kPa	1040.95
293.15 K, 20000 kPa	1045.52
293.15 K, 30000 kPa	1049.89
293.15 K, 40000 kPa	1054.08
293.15 K, 50000 kPa	1058.13
293.15 K, 60000 kPa	1062.03
293.15 K, 70000 kPa	1065.8
293.15 K, 80000 kPa	1069.46
293.15 K, 90000 kPa	1073.01
293.15 K, 100000 kPa	1076.45
293.16 K, 101.33 kPa	1036.21
298.15 K, 100 kPa	1032.55
298.15 K, 10000 kPa	1037.38
298.15 K, 20000 kPa	1042.03
298.15 K, 30000 kPa	1046.08
298.15 K, 40000 kPa	1050.75
298.15 K, 50000 kPa	1054.86
298.15 K, 60000 kPa	1058.82
298.15 K, 70000 kPa	1062.66
298.15 K, 80000 kPa	1066.37
298.15 K, 90000 kPa	1069.96
298.15 K, 100000 kPa	1073.46
298.16 K, 101.33 kPa	1032.54
303.15 K, 100 kPa	1028.84
303.15 K, 10000 kPa	1033.77
303.15 K, 20000 kPa	1038.51
303.15 K, 30000 kPa	1043.04
303.15 K, 40000 kPa	1047.38
303.15 K, 50000 kPa	1051.56
303.15 K, 60000 kPa	1055.59
303.15 K, 70000 kPa	1059.48
303.15 K, 80000 kPa	1063.24
303.15 K, 90000 kPa	1066.89
303.15 K, 100000 kPa	1070.44
303.16 K, 101.33 kPa	1028.83
308.15 K, 100 kPa	1025.1
308.15 K, 101.33 kPa	1025.09
308.15 K, 10000 kPa	1030.12
308.15 K, 20000 kPa	1034.95
308.15 K, 30000 kPa	1039.56
308.15 K, 40000 kPa	1043.98
308.15 K, 50000 kPa	1048.23
308.15 K, 60000 kPa	1052.32
308.15 K, 70000 kPa	1056.27
308.15 K, 80000 kPa	1060.1
308.15 K, 90000 kPa	1063.8
308.15 K, 100000 kPa	1067.39
313.15 K, 100 kPa	1021.31
313.15 K, 101.33 kPa	1021.3
313.15 K, 10000 kPa	1026.44
313.15 K, 20000 kPa	1031.36
313.15 K, 30000 kPa	1036.06
313.15 K, 40000 kPa	1040.55
313.15 K, 50000 kPa	1044.87
313.15 K, 60000 kPa	1049.03
313.15 K, 70000 kPa	1053.04
313.15 K, 80000 kPa	1056.92
313.15 K, 90000 kPa	1060.68
313.15 K, 100000 kPa	1064.32
318.15 K, 100 kPa	1017.48
318.16 K, 101.33 kPa	1017.48
323.15 K, 101.33 kPa	1013.61
328.16 K, 101.33 kPa	1009.71
333.15 K, 101.33 kPa	1005.76
338.16 K, 101.33 kPa	1001.77
343.15 K, 101.33 kPa	997.745
348.15 K, 101.33 kPa	993.675
353.15 K, 101.33 kPa	989.56
358.15 K, 101.33 kPa	985.405
363.15 K, 101.33 kPa	981.219

[2]
Settings	speed of sound [m/s]
292.87 K, 45590 kPa, Sing-around technique in a fixed-path interferometer	1674.4
292.87 K, 60790 kPa, Sing-around technique in a fixed-path interferometer	1717.8
292.87 K, 101320 kPa, Sing-around technique in a fixed-path interferometer	1821.9
292.88 K, 15200 kPa, Sing-around technique in a fixed-path interferometer	1578.7
292.88 K, 30390 kPa, Sing-around technique in a fixed-path interferometer	1628.5
292.88 K, 75990 kPa, Sing-around technique in a fixed-path interferometer	1758.5
292.88 K, 91180 kPa, Sing-around technique in a fixed-path interferometer	1797.3
292.92 K, 100 kPa, Sing-around technique in a fixed-path interferometer	1523.1
293.15 K, 101.33 kPa, Pulse-echo method	1522.4
298.15 K, 101.33 kPa, Pulse-echo method	1508.4
298.15 K, 45590 kPa, Sing-around technique in a fixed-path interferometer	1661.6
298.15 K, 60790 kPa, Sing-around technique in a fixed-path interferometer	1705.2
298.15 K, 75990 kPa, Sing-around technique in a fixed-path interferometer	1746.5
298.16 K, 15200 kPa, Sing-around technique in a fixed-path interferometer	1564.2
298.16 K, 30390 kPa, Sing-around technique in a fixed-path interferometer	1615.1
298.16 K, 91180 kPa, Sing-around technique in a fixed-path interferometer	1785.6
298.16 K, 101320 kPa, Sing-around technique in a fixed-path interferometer	1810.5
298.2 K, 100 kPa, Sing-around technique in a fixed-path interferometer	1508.3
303.13 K, 60790 kPa, Sing-around technique in a fixed-path interferometer	1693.5
303.13 K, 101320 kPa, Sing-around technique in a fixed-path interferometer	1799.9
303.14 K, 15200 kPa, Sing-around technique in a fixed-path interferometer	1551
303.14 K, 30390 kPa, Sing-around technique in a fixed-path interferometer	1602.4
303.14 K, 45590 kPa, Sing-around technique in a fixed-path interferometer	1649.6
303.14 K, 75990 kPa, Sing-around technique in a fixed-path interferometer	1735.4
303.14 K, 91180 kPa, Sing-around technique in a fixed-path interferometer	1774.8
303.15 K, 101.33 kPa, Pulse-echo method	1494.3
303.18 K, 100 kPa, Sing-around technique in a fixed-path interferometer	1494.2
308.12 K, 60790 kPa, Sing-around technique in a fixed-path interferometer	1682
308.12 K, 75990 kPa, Sing-around technique in a fixed-path interferometer	1724.1
308.12 K, 91180 kPa, Sing-around technique in a fixed-path interferometer	1764
308.12 K, 101320 kPa, Sing-around technique in a fixed-path interferometer	1789.3
308.13 K, 15200 kPa, Sing-around technique in a fixed-path interferometer	1537.7
308.13 K, 30390 kPa, Sing-around technique in a fixed-path interferometer	1589.5
308.13 K, 45590 kPa, Sing-around technique in a fixed-path interferometer	1637.6
308.15 K, 101.33 kPa, Pulse-echo method	1480.2
308.17 K, 100 kPa, Sing-around technique in a fixed-path interferometer	1480.1
313.15 K, 101.33 kPa, Pulse-echo method	1466
313.31 K, 15200 kPa, Sing-around technique in a fixed-path interferometer	1524.2
313.31 K, 30390 kPa, Sing-around technique in a fixed-path interferometer	1576.4
313.31 K, 45590 kPa, Sing-around technique in a fixed-path interferometer	1625
313.31 K, 60790 kPa, Sing-around technique in a fixed-path interferometer	1669.9
313.31 K, 75990 kPa, Sing-around technique in a fixed-path interferometer	1712.6
313.31 K, 91180 kPa, Sing-around technique in a fixed-path interferometer	1752.8
313.31 K, 101320 kPa, Sing-around technique in a fixed-path interferometer	1778.5
313.35 K, 100 kPa, Sing-around technique in a fixed-path interferometer	1465.4
